In brackets after ≈: the same amount, converted by molar mass. Counter-ions that a name gives are not always drawn.
Assays:
[1] = Solubility in simulated biological media (37° C., HPLC); assay type: physicochemical; details: for Solubility compared with the solubility of the free base: simulated biological media
Experimental: (§1) Procedure: About 10 mg of amorphous free base was weighed and placed in a 2 mL glass vial. Then, 1 mL of simulated biological media (simulated artificial gastric juice, simulated artificial intestinal juice-fasting, and simulated artificial intestinal juice-satiety), and a magnetic stirrer were added, and then the vial was sealed. The mixture was magnetically stirred at 37° C. and about 0.4 mL of the sample was taken at different time points. The mixture was filtered with a centrifuge tube (pore size of filter membrane: 0.45 μm), the filtrate was taken and the content of the compound of formula I therein was analyzed by HPLC.
as §1, with “crystal form I of” for “amorphous”, “vial,” for “vial. Then,”, “was” for “were”, “added,” for “added, and”
as §1, with “crystal form of the” for “amorphous”, “and” for “and then”
as §1, with “crystal form I of a phosphate salt” for “amorphous free base”, “(simulated is” for “(simulated”
as §1, with “crystal form III of the mesylate salt” for “amorphous free base”
as §1, with “crystal form III of the 1,5-naphthalenedisulfonate salt” for “amorphous free base”

[2] = Accelerated stability test (HPLC purity, crystal form); assay type: physicochemical; details: for Purity ratio: purity after test / initial purity
Experimental: The accelerated stability test of crystal form III of the mesylate salt was used for researching the physical and chemical stability of crystal form III of the mesylate salt. Specific procedure: After the sample was placed in an accelerated stability for a sufficient time under the conditions shown in the table below, the sample was taken out and dissolved in the mobile phase, and then its purity was determined by HPLC. Before the start of the accelerated stability test, the purity of the initial sample was determined by HPLC. The ratio of the purity of the sample after the accelerated stability test to the purity of the initial sample was used as a stability criterion. If the ratio was less than 95% purity, the sample was considered as unstable.

[3] = Bioavailability in dog after single administration by gavage; assay type: in vivo; details: 5 mg/kg
Experimental: It could be seen from FIG. 21 that the bioavailability of crystal form III of the mesylate salt was increased by 5 times in comparison to form I of the free base. Experimental conditions: the experimental animal was a dog, a dose of 5 mg/kg, single administration by gavage. Therefore, the salt-form compound has a significant improvement in comparison to the free base.

[4] = simulated artificial gastric juice
[5] = simulated artificial intestinal juice-fasting
[6] = simulated artificial intestinal juice-satiety
[7] = 40° C./75% relative humidity, 1 week

Solubility (1 hour) [1, 4] | Solubility (4 hours) [1, 4] | Solubility (22 hours) [1, 4] | Solubility (1 hour) [1, 5] | Solubility (4 hours) [1, 5] | Solubility (22 hours) [1, 5] | Solubility (1 hour) [1, 6] | Solubility (4 hours) [1, 6] | Solubility (22 hours) [1, 6] | Solubility compared with the solubility of the free base [1] | Crystal transformation after the accelerated stability test [2, 7] | Purity after the accelerated stability test ([2]; 40° C./75% relative humidity, 1 week, initial purity 98.2%) | Purity ratio [2, 7] | Physical and chemical stability ([2]; 80° C. 1 day and 40° C./75% relative humidity 1 week) | Crystal transformation after the accelerated stability test ([2]; 80° C., 1 day) | Purity after the accelerated stability test ([2]; 80° C., 1 day, initial purity 99.9%) | Purity ratio ([2]; 80° C., 1 day) | Increase of bioavailability in comparison to form I of the free base [3] | Structure (SMILES)
182 µg/mL | 27 µg/mL | 30 µg/mL | 12 µg/mL | 10 µg/mL | 5 µg/mL | 48 µg/mL | 33 µg/mL | 13 µg/mL | much greater | – | – | – | – | – | – | – | – | CN1C(=O)COc2c1cnc1ccc(Sc3nnc4c(F)cc(-c5cnn(C)c5)cn34)cc21 [Crystal form III of the 1,5-naphthalenedisulfonate salt] [9-((8-fluoro-6-(1-methyl-1H-pyrazol-4-yl)-[1,2,4]triazolo[4,3-a]pyridin-3-yl)thio)-4-methyl-2H-[1,4]oxazino[3,2-c]quinolin-3(4H)-one]
40 µg/mL (≈ 86.7 µM) | 43 µg/mL (≈ 93.2 µM) | 43 µg/mL (≈ 93.2 µM) | 4 µg/mL (≈ 8.67 µM) | 4 µg/mL (≈ 8.67 µM) | 4 µg/mL (≈ 8.67 µM) | 11 µg/mL (≈ 23.8 µM) | 11 µg/mL (≈ 23.8 µM) | 10 µg/mL (≈ 21.7 µM) | – | – | – | – | – | – | – | – | – | CN1C(=O)COc2c1cnc1ccc(Sc3nnc4c(F)cc(-c5cnn(C)c5)cn34)cc21 [Crystal form III of free base, 9-((8-fluoro-6-(1-methyl-1H-pyrazol-4-yl)-[1,2,4]triazolo[4,3-a]pyridin-3-yl)thio)-4-methyl-2H-[1,4]oxazino[3,2-c]quinolin-3(4H)-one]
18 µg/mL (≈ 39 µM) | 19 µg/mL (≈ 41.2 µM) | 19 µg/mL (≈ 41.2 µM) | 1 µg/mL (≈ 2.17 µM) | 1 µg/mL (≈ 2.17 µM) | 2 µg/mL (≈ 4.33 µM) | 4 µg/mL (≈ 8.67 µM) | 4 µg/mL (≈ 8.67 µM) | 4 µg/mL (≈ 8.67 µM) | – | – | – | – | – | – | – | – | – | CN1C(=O)COc2c1cnc1ccc(Sc3nnc4c(F)cc(-c5cnn(C)c5)cn34)cc21 [Crystal form I of free base, 9-((8-fluoro-6-(1-methyl-1H-pyrazol-4-yl)-[1,2,4]triazolo[4,3-a]pyridin-3-yl)thio)-4-methyl-2H-[1,4]oxazino[3,2-c]quinolin-3(4H)-one]
11 µg/mL (≈ 23.8 µM) | 9 µg/mL (≈ 19.5 µM) | 9 µg/mL (≈ 19.5 µM) | 2 µg/mL (≈ 4.33 µM) | 2 µg/mL (≈ 4.33 µM) | 2 µg/mL (≈ 4.33 µM) | 3 µg/mL (≈ 6.5 µM) | 2 µg/mL (≈ 4.33 µM) | 2 µg/mL (≈ 4.33 µM) | – | – | – | – | – | – | – | – | – | CN1C(=O)COc2c1cnc1ccc(Sc3nnc4c(F)cc(-c5cnn(C)c5)cn34)cc21 [Amorphous free base, 9-((8-fluoro-6-(1-methyl-1H-pyrazol-4-yl)-[1,2,4]triazolo[4,3-a]pyridin-3-yl)thio)-4-methyl-2H-[1,4]oxazino[3,2-c]quinolin-3(4H)-one]
128 µg/mL | 135 µg/mL | 135 µg/mL | 8 µg/mL | 4 µg/mL | 3 µg/mL | 32 µg/mL | 33 µg/mL | 27 µg/mL | much greater | – | – | – | – | – | – | – | – | CN1C(=O)COc2c1cnc1ccc(Sc3nnc4c(F)cc(-c5cnn(C)c5)cn34)cc21 [Crystal form I of phosphate, 9-((8-fluoro-6-(1-methyl-1H-pyrazol-4-yl)-[1,2,4]triazolo[4,3-a]pyridin-3-yl)thio)-4-methyl-2H-[1,4]oxazino[3,2-c]quinolin-3(4H)-one]
211 µg/mL | 200 µg/mL | 12.5 µg/mL | 5 µg/mL | 5 µg/mL | 5 µg/mL | 20 µg/mL | 14 µg/mL | 10 µg/mL | much greater | No | 98.8% | 100.6% | good physical and chemical stability | No | 99.7% | 99.8% | 5 times | CN1C(=O)COc2c1cnc1ccc(Sc3nnc4c(F)cc(-c5cnn(C)c5)cn34)cc21 [Crystal form III of mesylate, 9-((8-fluoro-6-(1-methyl-1H-pyrazol-4-yl)-[1,2,4]triazolo[4,3-a]pyridin-3-yl)thio)-4-methyl-2H-[1,4]oxazino[3,2-c]quinolin-3(4H)-one]
